The source of these data is US20220110888A1, “COMPOSITION FOR THE TREATMENT OF PSORIASIS” (Charlotte's Web, Inc., priority 2020, published 2022).

The nature of this data set: Systemic exposure to CBD after dermal application.

As for `C=C(C)[C@@H]1CCC(C)=C[C@H]1c1c(O)cc(CCCCC)cc1O` [CBD, cannabidiol], the “reach of the bloodstream / systemic circulation” value was “does not reach the bloodstream”.
